Source: patent US8722903B2, “Indazole derivatives for the treatment of HSP9O-induced diseases” (Merck Patent GmbH, priority 2006, dated 2014)

Biological target: T1, Recombinant human HSP90α (Homo sapiens, UniProt P07900)
T1 construct: host or cells: E. coli
Experiment: Radioligand filter binding test: competitive inhibition of [3H]17AAG binding to HSP90
Conditions: [3H]17AAG 0.08 μM, HSP90 1.5 μg/assay, 22° C., 30 min
Procedure: In the specific case, a radioligand filter binding test is used. The radioligand used here is tritium-labelled 17-allylaminogeldanamycin, [3H]17AAG, This filter binding test allows a targeted search for inhibitors which interfere with the ATP binding site.
Recombinant human HSP90α (E. coli expressed, 95% purity);
HEPES filter buffer (50 mM HEPES, pH 7.0, 5 mM MgCl2, BSA 0.01%) Multiscreen FB (1 μm) filter plate (Millipore, MAFBNOB 50).
The 96-well microtitre filter plates are firstly irrigated and coated with 0.1% of polyethylenimine.
The test is carried out under the following conditions:
Reaction temperature 22° C.
Reaction time: 30 min., shaking at 800 rpm
50 mM HEPES HCl, pH 7.0, 5 mM MgCl2, 0.01% (w/v) of BSA
At the end of the reaction, the supernatant in the filter plate is removed by suction with the aid of a vacuum manifold (Multiscreen Separation System, Millipore), and the filter is washed twice.
The filter plates are then measured in a beta counter (Microbeta, Wallac) with scintillator (Microscint 20, Packard).
“% of control” is determined from the “counts per minutes” values, and the IC-50 value of a compound is calculated therefrom.

Structure (SMILES) | IC50 [nM]
CCCc1n[nH]c2cc(O)c(C(=O)N(C)c3ccc(CNS(C)(=O)=O)cc3)cc12 [Compound A177, 5-[N-(4-Methylsulfonylaminomethylphenyl)-N-methylaminocarbonyl]-3-propyl-6-hydroxy-1H-indazole] | 10 to 1000
CCCc1n[nH]c2cc(O)c(C(=O)N(C)Cc3ccccc3)cc12 [Compound A178, 5-(N-Benzyl-N-methylaminocarbonyl)-3-propyl-6-hydroxy-1H-indazole] | 10 to 1000
CN(Cc1ccccc1)C(=O)c1cc2c(CCc3ccccc3)n[nH]c2cc1O [Compound A181, 5-(N-Benzyl-N-methylaminocarbonyl)-3-phenethyl-6-hydroxy-1H-indazole] | 10 to 1000
CCCN(C)C(=O)c1cc2c(CCc3ccccc3)n[nH]c2cc1O [Compound A182, 5-(N-Propyl-N-methylaminocarbonyl)-3-phenethyl-6-hydroxy-1H-indazole] | 1000 to 10000
COc1cc(N(C)C(=O)c2cc3c(Cc4cccc(C)c4)n[nH]c3cc2O)ccc1N1CCN(C)CC1 [Compound A190, 5-{N-[3-Methoxy-4-(4-methylpiperazin-1-yl)phenyl]-N-methylaminocarbonyl}-3-(3-methylbenzyl)-6-hydroxy-1H-indazole] | 10 to 1000
Cc1cccc(Cc2n[nH]c3cc(O)c(C(=O)N(C)c4ccc(CN5CCOCC5)cc4)cc23)c1 [Compound A191, 5-[N-(4-Morpholin-4-ylmethylphenyl)-N-methylaminocarbonyl]-3-(3-methylbenzyl)-6-hydroxy-1H-indazole] | 10 to 1000
Cc1cccc(Cc2n[nH]c3cc(O)c(C(=O)N(C)C4CCCCC4)cc23)c1 [Compound A195, 5-(N-Cyclohexyl-N-methylaminocarbonyl)-3-(3-methylbenzyl)-6-hydroxy-1H-indazole] | 1000 to 10000
Cc1ccc(N(C)C(=O)c2cc3c(CC4CCCC4)n[nH]c3cc2O)cc1 [Compound A256, 5-[N-(4-Methylphenyl)-N-methylaminocarbonyl]-3-cyclopentylmethyl-6-hydroxy-1H-indazole] | 10 to 1000
COc1cccc(N(C)C(=O)c2cc3c(CC4CCCC4)n[nH]c3cc2O)c1 [Compound A257, 5-[N-(3-Methoxyphenyl)-N-methylaminocarbonyl]-3-cyclopentylmethyl-6-hydroxy-1H-indazole] | 10 to 1000
CN(C(=O)c1cc2c(CC3CCCC3)n[nH]c2cc1O)c1ccc2c(c1)OCO2 [Compound A260, 5-[N-(Benzo-1,3-dioxol-5-yl)-N-methylaminocarbonyl]-3-cyclopentylmethyl-6-hydroxy-1H-indazole] | 10 to 1000
